Test results reported in ChEMBL document CHEMBL3875175, “Multi-targeting exploration of new 2-aminothiazolyl quinolones: Synthesis, antimicrobial evaluation, interaction with DNA, combination with topoisomerase IV and penetrability into cells” (Eur J Med Chem, 2016).
In brackets after ≈: the same amount, converted by molar mass. Activity calls are given as the source filed them. The rule behind the calls is not given here.

Legend:
Staphylococcus aureus [1] = experiment: Antibacterial activity against methicillin-resistant Staphylococcus aureus N315 after 24 hrs by two fold serial dilution method; assay type: functional; details: N315, 24 h
Proteus vulgaris = experiment: Antibacterial activity against Bacillus proteus ATCC 13315 after 24 hrs by two fold serial dilution method; assay type: functional; details: ATCC 13315, 24 h
Aspergillus flavus [2] = experiment: Antifungal activity against Aspergillus flavus after 24 hrs by two fold serial dilution method; assay type: functional
Bos taurus [3] = organism: Bos taurus; experiment: Binding affinity to calf thymus DNA assessed as DNA intercalation up to 1.75 x 10^-5mol/L by neutral red dye based UV-Visible spectroscopic method
Staphylococcus aureus [4] = experiment: Induction of membrane permeabilization in methicillin-resistant Staphylococcus aureus N315 at 12 times MIC measured for 2 hrs by propidium iodide staining based fluorescence assay; assay type: functional
Pseudomonas aeruginosa = experiment: Antibacterial activity against Pseudomonas aeruginosa ATCC 27853 after 24 hrs by two fold serial dilution method; assay type: functional; details: ATCC 27853, 24 h
Bos taurus [5] = organism: Bos taurus; experiment: Binding affinity to calf thymus DNA by UV-Visible spectroscopic method
[6] = Antifungal activity against Candida mycoderma after 24 hrs by two fold serial dilution method; assay type: functional; details: Pichia norvegensis
Escherichia coli [7] = experiment: Antibacterial activity against Escherichia coli JM109 after 24 hrs by two fold serial dilution method; assay type: functional; details: JM109, 24 h
[8] = Cytotoxicity against mouse L929 cells assessed as reduction in cell viability after 48 hrs by MTT assay; assay type: toxicity
Staphylococcus aureus [9] = experiment: Antibacterial activity against methicillin-resistant Staphylococcus aureus N315 after 15 days by serial passage resistance development assay; assay type: functional
Staphylococcus aureus [10] = experiment: Antibacterial activity against Staphylococcus aureus ATCC 25923 after 24 hrs by two fold serial dilution method; assay type: functional; details: ATCC 25923, 24 h
Bos taurus [11] = organism: Bos taurus; experiment: Binding affinity to calf thymus DNA assessed as hypochromism up to 9 x 10^-5mol/L by UV-Visible spectroscopic method
Candida albicans = experiment: Antifungal activity against Candida albicans ATCC 76615 after 24 hrs by two fold serial dilution method; assay type: functional; details: ATCC 76615, 24 h
[12] = Antifungal activity against Candida utilis after 24 hrs by two fold serial dilution method; assay type: functional; details: Cyberlindnera jadinii
Salmonella typhi [13] = experiment: Induction of membrane permeabilization in Bacillus typhi at 12 times MIC measured for 2 hrs by propidium iodide staining based fluorescence assay; assay type: functional; details: Salmonella enterica subsp. enterica serovar Typhi
Micrococcus luteus = experiment: Antibacterial activity against Micrococcus luteus ATCC 4698 after 24 hrs by two fold serial dilution method; assay type: functional; details: NCTC 2665, 24 h
Salmonella typhi [14] = experiment: Potency index, ratio of norfloxacin MIC to compound MIC for Bacillus typhi; assay type: functional, Salmonella enterica subsp. enterica serovar Typhi
Bacillus spizizenii = experiment: Antibacterial activity against Bacillus subtilis ATCC 6633 after 24 hrs by two fold serial dilution method; assay type: functional; details: ATCC 6633, 24 h
Escherichia coli [15] = experiment: Antibacterial activity against Escherichia coli DH52 after 24 hrs by two fold serial dilution method; assay type: functional; details: DH52, 24 h
Saccharomyces cerevisiae = experiment: Antifungal activity against Beer yeast after 24 hrs by two fold serial dilution method; assay type: functional
Aspergillus flavus [16] = experiment: Potency index, ratio of fluconazole MIC80 to compound MIC80 for Aspergillus flavus; assay type: functional
Salmonella typhi [17] = experiment: Potency index, ratio of chloromycin MIC to compound MIC for Bacillus typhi; assay type: functional, Salmonella enterica subsp. enterica serovar Typhi
Salmonella typhi [18] = experiment: Antibacterial activity against Bacillus typhi after 24 hrs by two fold serial dilution method; assay type: functional, Salmonella enterica subsp. enterica serovar Typhi; details: Salmonella enterica
Shigella dysenteriae [19] = experiment: Antibacterial activity against Shigella dysenteriae after 24 hrs by two fold serial dilution method; assay type: functional
Staphylococcus aureus [20] = experiment: Bactericidal activity against methicillin-resistant Staphylococcus aureus N315 assessed as log reduction in bacterial count at 4 times MIC up to 1 hr by time-kill kinetic assay; assay type: functional
Shigella dysenteriae [21] = experiment: Potency index, ratio of norfloxacin MIC to compound MIC for Shigella dysenteriae; assay type: functional
Shigella dysenteriae [22] = experiment: Potency index, ratio of chloromycin MIC to compound MIC for Shigella dysenteriae; assay type: functional

SMILES | MIC (Staphylococcus aureus [1]) [µg/mL] | MIC (Proteus vulgaris) [µg/mL] | MIC80 (Aspergillus flavus [2]) [µg/mL] | MIC (Pseudomonas aeruginosa) [µg/mL] | MIC80 [6] [µg/mL] | MIC (Escherichia coli [7]) [µg/mL] | MIC (Staphylococcus aureus [10]) [µg/mL] | MIC80 (Candida albicans) [µg/mL] | MIC80 [12] [µg/mL] | MIC (Micrococcus luteus) [µg/mL] | MIC (Bacillus spizizenii) [µg/mL] | MIC (Escherichia coli [15]) [µg/mL] | MIC80 (Saccharomyces cerevisiae) [µg/mL] | MIC (Salmonella typhi [18]) [µg/mL] | MIC (Shigella dysenteriae [19]) [µg/mL] | also measured
C#CCn1cc(-c2cnc(N)s2)c(=O)c2cc(F)cc(F)c21 | 8 (≈ 25.2 µM) | 32 (≈ 101 µM) | 8 (≈ 25.2 µM) | 16 (≈ 50.4 µM) | 8 (≈ 25.2 µM) | 32 (≈ 101 µM) | 8 (≈ 25.2 µM) | 16 (≈ 50.4 µM) | 32 (≈ 101 µM) | 32 (≈ 101 µM) | 16 (≈ 50.4 µM) | 16 (≈ 50.4 µM) | 8 (≈ 25.2 µM) | 1 (≈ 3.15 µM) | 8 (≈ 25.2 µM) | Activity (Bos taurus [3]): Active; Activity (Staphylococcus aureus [4]): Active; K (Bos taurus [5]): 0.538 ×10⁴ L/mol; IC50 at 48 h [8]: 289 µg/mL (≈ 911 µM); Activity (Staphylococcus aureus [9]): Active; Activity (Bos taurus [11]): Active; Activity (Salmonella typhi [13]): Active; Ratio (Salmonella typhi [14]): 4; Ratio (Aspergillus flavus [16]): 32; Ratio (Salmonella typhi [17]): 32; Activity (Staphylococcus aureus [20]): 3 log10CFU/ml
Nc1ncc(-c2cn(Cc3cccc(Cl)c3)c3c(F)cc(F)cc3c2=O)s1 | 128 (≈ 317 µM) | 256 (≈ 634 µM) | 64 (≈ 158 µM) | 64 (≈ 158 µM) | 64 (≈ 158 µM) | 256 (≈ 634 µM) | 64 (≈ 158 µM) | 128 (≈ 317 µM) | 256 (≈ 634 µM) | 128 (≈ 317 µM) | 256 (≈ 634 µM) | 32 (≈ 79.2 µM) | 64 (≈ 158 µM) | 32 (≈ 79.2 µM) | 128 (≈ 317 µM) | 
CCCCCn1cc(-c2cnc(N)s2)c(=O)c2cc(F)cc(F)c21 | 32 (≈ 91.6 µM) | 64 (≈ 183 µM) | 16 (≈ 45.8 µM) | 16 (≈ 45.8 µM) | 32 (≈ 91.6 µM) | 64 (≈ 183 µM) | 256 (≈ 733 µM) | 64 (≈ 183 µM) | 64 (≈ 183 µM) | 128 (≈ 366 µM) | 64 (≈ 183 µM) | 32 (≈ 91.6 µM) | 128 (≈ 366 µM) | 16 (≈ 45.8 µM) | 16 (≈ 45.8 µM) | 
CCCCCCCn1cc(-c2cnc(N)s2)c(=O)c2cc(F)cc(F)c21 | 128 (≈ 339 µM) | 32 (≈ 84.8 µM) | 64 (≈ 170 µM) | 32 (≈ 84.8 µM) | 256 (≈ 678 µM) | 128 (≈ 339 µM) | 256 (≈ 678 µM) | 32 (≈ 84.8 µM) | 64 (≈ 170 µM) | 256 (≈ 678 µM) | 64 (≈ 170 µM) | 32 (≈ 84.8 µM) | 16 (≈ 42.4 µM) | 64 (≈ 170 µM) | 32 (≈ 84.8 µM) | 
CCCn1cc(-c2cnc(N)s2)c(=O)c2cc(F)cc(F)c21 | 32 (≈ 99.6 µM) | 64 (≈ 199 µM) | 32 (≈ 99.6 µM) | 16 (≈ 49.8 µM) | 32 (≈ 99.6 µM) | 64 (≈ 199 µM) | 16 (≈ 49.8 µM) | 32 (≈ 99.6 µM) | 64 (≈ 199 µM) | 16 (≈ 49.8 µM) | 32 (≈ 99.6 µM) | 64 (≈ 199 µM) | 16 (≈ 49.8 µM) | 16 (≈ 49.8 µM) | 4 (≈ 12.4 µM) | Ratio (Shigella dysenteriae [21]): 4; Ratio (Shigella dysenteriae [22]): 4
Nc1ncc(-c2cn(Cc3ccc(F)cc3)c3c(F)cc(F)cc3c2=O)s1 | 16 (≈ 41.3 µM) | 64 (≈ 165 µM) | 32 (≈ 82.6 µM) | 64 (≈ 165 µM) | 16 (≈ 41.3 µM) | 16 (≈ 41.3 µM) | 32 (≈ 82.6 µM) | 32 (≈ 82.6 µM) | 64 (≈ 165 µM) | 16 (≈ 41.3 µM) | 128 (≈ 330 µM) | 32 (≈ 82.6 µM) | 32 (≈ 82.6 µM) | 16 (≈ 41.3 µM) | 4 (≈ 10.3 µM) | 
Nc1ncc(-c2cn(Cc3ccccc3Cl)c3c(F)cc(F)cc3c2=O)s1 | 64 (≈ 158 µM) | 256 (≈ 634 µM) | 64 (≈ 158 µM) | 32 (≈ 79.2 µM) | 64 (≈ 158 µM) | 128 (≈ 317 µM) | 128 (≈ 317 µM) | 128 (≈ 317 µM) | 64 (≈ 158 µM) | 64 (≈ 158 µM) | 256 (≈ 634 µM) | 128 (≈ 317 µM) | 128 (≈ 317 µM) | 128 (≈ 317 µM) | 64 (≈ 158 µM) | 
OC(Cn1cncn1)(Cn1cncn1)c1ccc(F)cc1F [FLUCONAZOLE] |  |  | 256 (≈ 836 µM) |  | 4 (≈ 13.1 µM) |  |  | 1 (≈ 3.27 µM) | 8 (≈ 26.1 µM) |  |  |  | 16 (≈ 52.2 µM) |  |  | 
Nc1ncc(-c2cn(Cc3ccc(Cl)cc3)c3c(F)cc(F)cc3c2=O)s1 | 64 (≈ 158 µM) | 32 (≈ 79.2 µM) | 64 (≈ 158 µM) | 128 (≈ 317 µM) | 256 (≈ 634 µM) | 128 (≈ 317 µM) | 128 (≈ 317 µM) | 512 (≈ 1270 µM) | 256 (≈ 634 µM) | 64 (≈ 158 µM) | 256 (≈ 634 µM) | 64 (≈ 158 µM) | 128 (≈ 317 µM) | 32 (≈ 79.2 µM) | 16 (≈ 39.6 µM) | 
